Data: publication PMC10660663

Test: SuFEx S-O bond formation: di-sulfonimidoyl fluoride (mixture of diastereomers) + diphenol (1:1), DBU 2.1 equiv, [1+1] macrocyclisation, one pot
Conditions: the molecule shown is the open-chain precursor, MeCN, 20.0 mM, 50.0 °C, 3.0 h

Q: With Cc1ccc(S(=O)(F)=NC(=O)c2ccc(C(=O)N=S(=O)(Oc3ccc(OCCOc4ccc(O)cc4)cc3)c3ccc(C)cc3)cc2)cc1 (stereo not shown) [3g] as the compound, how does the ring closure, isolated yield (24-membered ring) read?
A: 79%

Q: Which ring closure, isolated yield (23-membered ring) does the source give for Cc1ccc(S(=O)(F)=NC(=O)c2cccc(C(=O)N=S(=O)(Oc3ccc(OCCOc4ccc(O)cc4)cc3)c3ccc(C)cc3)c2)cc1 (stereo not shown) [3q] here?
A: 64%

Q: Which ring closure, isolated yield (22-membered ring) does the source give for Cc1ccc(S(=O)(F)=NC(=O)c2ccc(C(=O)N=S(=O)(Oc3ccccc3CNCCNCc3ccccc3O)c3ccc(C)cc3)cc2)cc1 (stereo not shown) [3f] here?
A: 87%

Q: With Cc1ccc(S(=O)(F)=NC(=O)c2ccc(C(=O)N=S(=O)(Oc3ccc(C(C)(C)c4cccc(C(C)(C)c5ccc(O)cc5)c4)cc3)c3ccc(C)cc3)cc2)cc1 (stereo not shown) as the compound, how does the ring closure, isolated yield (25-membered ring) read?
A: 74%

Q: Which ring closure, isolated yield (31-membered ring) does the source give for Cc1ccc(S(=O)(F)=NC(=O)c2ccc(Oc3ccc(C(=O)N=S(=O)(Oc4ccc(OCCCCOc5ccc(O)cc5)cc4)c4ccc(C)cc4)cc3)cc2)cc1 (stereo not shown) [3m] here?
A: 78%

Q: Which ring closure, isolated yield (26-membered ring) does the source give for Cc1ccc(S(=O)(F)=NC(=O)c2ccc(C(=O)N=S(=O)(Oc3ccccc3CNCCCCCCNCc3ccccc3O)c3ccc(C)cc3)cc2)cc1 (stereo not shown) [3e] here?
A: 91%

Q: For Cc1ccc(S(=O)(F)=NC(=O)c2ccc(Oc3ccc(C(=O)N=S(=O)(Oc4cccc(Oc5cccc(Oc6cccc(O)c6)c5)c4)c4ccc(C)cc4)cc3)cc2)cc1 (stereo not shown) [3k], which ring closure, isolated yield (28-membered ring) is on record?
A: 88%

Q: For Cc1ccc(S(=O)(F)=NC(=O)c2cccc(C(=O)N=S(=O)(Oc3ccc(C(C)(C)c4cccc(C(C)(C)c5ccc(O)cc5)c4)cc3)c3ccc(C)cc3)c2)cc1 (stereo not shown) [3o (isophthaloyl)], which ring closure, isolated yield (24-membered ring) is on record?
A: 70%

Q: For Cc1ccc(S(=O)(F)=NC(=O)c2ccc(C(=O)N=S(=O)(Oc3cccc(Oc4cccc(Oc5cccc(O)c5)c4)c3)c3ccc(C)cc3)cc2)cc1 (stereo not shown) [3d], which ring closure, isolated yield (23-membered ring) is on record?
A: 67%

Q: Which ring closure, isolated yield (22-membered ring) does the source give for Cc1ccc(S(=O)(F)=NC(=O)c2ccc(C(=O)N=S(=O)(Oc3ccc(SSc4ccc(O)cc4)cc3)c3ccc(C)cc3)cc2)cc1 (stereo not shown) [3a] here?
A: 96%
